{
  "source": "patent US11510913B1",
  "about": "“Modulating expression level of a gene encoding an apurinic/apyrimidinic endodeoxyribonuclease protein by treating a human subject with a nitroxide” (priority 2021, dated 2022)",
  "key": {"APEX1 [1]": {"system": "APEX1", "test": "Effects of Tempol on gene expression in cardiac tissue of mice, chip-based microarray", "assay_type": "in vivo", "experimental": "To assess the effects of Tempol on gene expression, Tempol was administered to experimental mice at a dose of 5 mg/g of food from 14 months to 31 months after birth. Mice receiving the same food without the addition of Tempol were used as a negative control. At the age of 31 months, the experimental animals were sacrificed and the hearts were surgically removed. The expression of a broad spectrum of genes in the cardiac tissue was assessed using chip-based microarray technology. Such chips are well known in the art and are widely used to assess gene expression."}, "APEX1 [2]": {"system": "APEX1", "test": "Treating human subjects with Tempol, serum level of APEX1 following treatment", "assay_type": "in vivo", "settings": "2000 mg per day for 180 days", "experimental": "(§1) A 70-kilogram human subject over the age of 65 is identified as having, or known to have, or suspected of having an increased expression level of APEX1. The human subject is administered a dose of 2000 mg of Tempol (or another nitroxide antioxidant) per day for 180 days. This may be administered in a single dose, or may be administered as a number of smaller doses over a 24-hour period: for example, four 500-mg doses at […]. Following treatment, the serum level of APEX1, is decreased.\nA 70-kilogram human subject is identified as having, or known to have, or suspected of having an increased expression level of APEX1. The human subject is administered a dose of 2000 mg of Tempol (or another nitroxide antioxidant) per day for 180 days. This may be administered in a single dose, or may be administered as a number of smaller doses over a 24-hour period: for example, four 500-mg doses at […]. Following treatment, the serum level of APEX1, is decreased.\nas §1, with “65 and having a cardiovascular disease” for “65”, “for an increased expression level of APEX1. Or a 70-kilogram human subject over the age of 65 is” for “as having, or”, “have a cardiovascular disease and/or” for “have, or suspected of having an”\n(§2) A 70-kilogram human subject at risk of developing colorectal cancer is identified for increased expression level of APEX1. Or a 70-kilogram human subject is known to be at risk of developing colorectal cancer and/or have increased expression level of APEX1. The human subject is administered a dose of 2000 mg of Tempol (or another nitroxide antioxidant) per day for 180 days. This may be administered in a single dose, or may be administered as a number of smaller doses over a 24-hour period: for example, four 500-mg doses at […]. Following treatment, the serum level of APEX1, is decreased.\nas §2, with “of developing an autoimmune disease (e.g., rheumatoid arthritis) is identified” for “of developing colorectal cancer is identified”, “of developing an autoimmune disease and/or have” for “of developing colorectal cancer and/or have”\nThe human subject is administered a dose of 2000 mg of Tempol (or another nitroxide antioxidant) per day for 180 days. This may be administered in a single dose, or may be administered as a number of smaller doses over a 24-hour period: for example, four 500-mg doses at […]. Following treatment, the serum level of APEX1, is decreased.\nas §2, with “of developing a neurodegenerative disease (e.g., Parkinson's Disease) is identified” for “of developing colorectal cancer is identified”, “of developing a neurodegenerative disease and/or have” for “of developing colorectal cancer and/or have”, “is decreased. […]” for “is decreased.”"}},
  "data": [
    {"smiles": "CC1(C)CC(O)CC(C)(C)N1[O]", "note": "[Tempol, 4-hydroxy-2,2,6,6-tetramethylpiperidine-1-oxyl]", "values": [
      {"measurement": "Fold change (APEX1 expression)", "setting": "APEX1 [1]; Tempol 5 mg/g of food from 14 months to 31 months after birth, cardiac tissue at 31 months, vs mice on same food without Tempol", "result": "−1.23"},
      {"measurement": "expression of APEX1 in the cardiac tissue", "setting": "APEX1 [1]; Tempol 5 mg/g of food from 14 to 31 months after birth, microarray", "result": "statistically significant decrease in expression"},
      {"measurement": "serum level of APEX1", "setting": "APEX1 [2]; Example 2: 70-kilogram human subject over the age of 65 with increased expression level of APEX1", "result": "decreased"},
      {"measurement": "serum level of APEX1", "setting": "APEX1 [2]; Example 3: 70-kilogram human subject with increased expression level of APEX1", "result": "decreased"},
      {"measurement": "serum level of APEX1", "setting": "APEX1 [2]; Example 4: human subject over the age of 65 having a cardiovascular disease", "result": "decreased"},
      {"measurement": "serum level of APEX1", "setting": "APEX1 [2]; Example 5: human subject at risk of developing colorectal cancer", "result": "decreased"},
      {"measurement": "serum level of APEX1", "setting": "APEX1 [2]; Example 6: human subject at risk of developing an autoimmune disease (e.g., rheumatoid arthritis)", "result": "decreased"},
      {"measurement": "serum level of APEX1", "setting": "APEX1 [2]; Example 7: human subject at risk of developing a condition due to aging", "result": "decreased"},
      {"measurement": "serum level of APEX1", "setting": "APEX1 [2]; Example 8: human subject at risk of developing a neurodegenerative disease (e.g., Parkinson's Disease)", "result": "decreased"},
      {"measurement": "serum level of APEX1", "setting": "APEX1 [2]; Example 9: human subject having an infection (e.g., bacterial, fungal, or viral)", "result": "decreased"}
    ]}
  ]
}
